Results: patent US12435108B2, “Teixobactin analogue and use thereof” (SUNSHINE LAKE PHARMA CO., LTD., priority 2019, dated 2025)
Where two headings read alike, the source gives them in different places.

Assays:
MSSA (ATCC29213) [1] = tested on: MSSA (ATCC29213)
Procedure: (§1) For the determination of the minimum inhibitory concentration (MIC), according to the CLSI standard, the minimum inhibitory concentration of 3 ATCC standard strains (2 strains of Staphylococcus aureus and 1 strain of Enterococcus faecium) was tested by two independent repeated experiments. Compounds were diluted two-fold in a 96-well plate from the highest detection concentration of 64 μg/mL. The test plate was placed in a common incubator and incubated at 35±2° C. for 20-24 hours. The growth of bacteria in the wells was observed and recorded. Inoculation method: 5-10 bacterial single colonies from the solid medium plate resuspended in 500 μL of 1.02×CAMHB, and then OD600 was adjusted to 0.1-0.15 with a spectrophotometer; then the bacteria were diluted 300-fold with 1.02×CAMHB to ˜2×10^5 CFU/ml (stepwise dilution, first 10-fold and then 30-fold), and the prepared bacterial inoculum was inoculated in 96-well plate within 15 minutes, the number of inoculated bacteria could be obtained by plate count. Colony count: the inoculated bacteria was diluted with liquid medium from 10^−1 to 10^−3 (such as 100 μL of bacterial inoculum+900 μL of 1.02×CAMHB); 100 μl of the above bacterial dilution was evenly spread on a TSA or TSA II plate, with 2 replicates per dilution. After the medium was absorbed by TSA or TSA II for 10 minutes, the plate was inverted and cultured at 35±2° C. for 24 hours in an incubator. Record of minimum inhibitory concentration and statistics of colony count: the minimum inhibitory concentration of each compound was recorded referring to the CLSI standard; the number of colonies of bacterial inoculum of different dilutions on the TSA or TSA II plate was counted and the amount of bacterial inoculation was calculated. Selection of strain types: MRSA (ATCC43300), MSSA (ATCC29213) and VRE (ATCC700221).

MSSA (ATCC29213) [2] = conditions: Test Method 1: agar plate two-fold dilution, CLSI, 35 °C, 18 h
Procedure: (§2) For the determination of the minimum inhibitory concentration (MIC), according to the CLSI standard, a two-fold dilution method with a plate and a Denlay multi-point inoculator were used to conduct the drug sensitivity test. The test bacteria were enriched with MH broth or brain heart infusion. The drug solution was diluted two-fold with MH broth to prepare various required concentrations, and appropriate amounts were added to the plates respectively. After the MH agar medium was melted, it was quantitatively poured into the plates containing the drug solution and mixed uniformly. The final concentrations of the samples were: 128, 64, 32, 16, 8, 4, 2, 1, 0.5, 0.25, 0.125, 0.063, 0.031, 0.016, 0.008, 0.004 μg/mL, respectively. The test bacteria were inoculated (inoculation amount was 10^4 cfu/point) and then incubated at constant temperature of 35 □. The results were observed after 18 h. The minimum concentration of the drug contained in the sterile growth plate was the minimum inhibitory concentration (MIC). Selection of strain types: MRSA (SA86 and SA88), MSSA (ATCC29213), Enterococcus (ET6) and Streptococcus faecalis (SF).

MRSA (SA86) = conditions: agar plate two-fold dilution, CLSI, 35 °C, 18 h
Procedure: as §2

Enterococcus (ET6) = conditions: agar plate two-fold dilution, CLSI, 35 °C, 18 h
Procedure: as §2

[3] = tested on: Streptococcus faecalis (SF); conditions: agar plate two-fold dilution, CLSI, 35 °C, 18 h
Procedure: as §2

[4] = 96-well plate, CAMHB, 35±2 °C, 20-24 hours, highest concentration 64 μg/mL
[5] = Test Method 2: 96-well plate, CAMHB, 35±2 °C, 20-24 hours, highest concentration 64 μg/mL

Procedure for MRSA (ATCC43300): as §1
Procedure for VRE (ATCC700221): as §1

SMILES	In vitro antibacterial activity MIC, VRE(ATCC700221) (VRE (ATCC700221); ATCC700221)	In vitro antibacterial activity MIC, MRSA(ATCC43300) (MRSA (ATCC43300); ATCC43300)	In vitro antibacterial activity MIC, MSSA(ATCC29213) (MSSA (ATCC29213) [1]; ATCC29213)	further results
CC[C@H](C)[C@H](NC(=O)[C@@H](Cc1ccc(-c2ccccc2)cc1)NC)C(=O)N[C@@H](CO)C(=O)N[C@H](CCC(N)=O)C(=O)N[C@@H](C(=O)N[C@H](C(=O)N[C@@H](CO)C(=O)N[C@H]1C(=O)N[C@@H](C)C(=O)NC2(CC2)C(=O)N[C@@H]([C@@H](C)CC)C(=O)O[C@H]1C)[C@@H](C)CC)[C@@H](C)CC.O=C(O)C(F)(F)F [Example 18]	2 µg/mL	2 µg/mL	2 µg/mL	–
C=C[C@H]1C[C@]12NC(=O)[C@H](C)NC(=O)[C@H](NC(=O)[C@H](CO)NC(=O)[C@@H](NC(=O)[C@H](NC(=O)[C@@H](CCC(N)=O)NC(=O)[C@H](CO)NC(=O)[C@@H](NC(=O)[C@@H](Cc1ccc3ccccc3c1)NC)[C@@H](C)CC)[C@@H](C)CC)[C@@H](C)CC)[C@H](C)OC(=O)[C@H]([C@@H](C)CC)NC2=O.O=C(O)C(F)(F)F [Example 22]	4 µg/mL	2 µg/mL	2 µg/mL	–
C=C[C@H]1C[C@]12NC(=O)[C@H](C)NC(=O)[C@H](NC(=O)[C@H](CO)NC(=O)[C@@H](NC(=O)[C@H](NC(=O)[C@@H](CCC(N)=O)NC(=O)[C@H](CO)NC(=O)[C@@H](NC(=O)[C@@H](Cc1ccc(-c3ccccc3)cc1)NC)[C@@H](C)CC)[C@@H](C)CC)[C@@H](C)CC)[C@H](C)OC(=O)[C@H]([C@@H](C)CC)NC2=O.O=C(O)C(F)(F)F [Example 20]	4 µg/mL	4 µg/mL	4 µg/mL	–
CC[C@H](C)[C@H](NC(=O)[C@@H](Cc1ccc2ccccc2c1)NC)C(=O)N[C@@H](CO)C(=O)N[C@H](CCC(N)=O)C(=O)N[C@@H](C(=O)N[C@H](C(=O)N[C@@H](CO)C(=O)N[C@H]1C(=O)N[C@@H](C)C(=O)NC2(CCCCCC2)C(=O)N[C@@H]([C@@H](C)CC)C(=O)O[C@H]1C)[C@@H](C)CC)[C@@H](C)CC.O=C(O)C(F)(F)F [Example 24]	4 µg/mL	4 µg/mL	4 µg/mL	–
CC[C@H](C)[C@H](NC(=O)[C@@H](Cc1ccccc1)NC)C(=O)N[C@@H](CO)C(=O)N[C@H](CCC(N)=O)C(=O)N[C@@H](C(=O)N[C@H](C(=O)N[C@@H](CO)C(=O)N[C@H]1C(=O)N[C@@H](C)C(=O)NC2(CC2)C(=O)N[C@@H]([C@@H](C)CC)C(=O)O[C@H]1C)[C@@H](C)CC)[C@@H](C)CC.O=C(O)C(F)(F)F [Example 5]	–	–	–	In vitro antibacterial activity MIC, MSSA(ATCC29213) (MSSA (ATCC29213) [2]): 4 µg/mL; In vitro antibacterial activity MIC, MRSA SA86 (MRSA (SA86)): 4 µg/mL; In vitro antibacterial activity MIC, Enterococcus (ET6) (Enterococcus (ET6)): 8 µg/mL; In vitro antibacterial activity MIC, Streptococcus faecalis(SF) [3]: 8 µg/mL
CC[C@H](C)[C@H](NC(=O)[C@@H](Cc1csc2ccccc12)NC)C(=O)N[C@@H](CO)C(=O)N[C@H](CCC(N)=O)C(=O)N[C@@H](C(=O)N[C@H](C(=O)N[C@@H](CO)C(=O)N[C@H]1C(=O)N[C@@H](C)C(=O)NC2(CC2)C(=O)N[C@@H]([C@@H](C)CC)C(=O)O[C@H]1C)[C@@H](C)CC)[C@@H](C)CC.O=C(O)C(F)(F)F [Example 15]	8 µg/mL	4 µg/mL	4 µg/mL	–
CC[C@H](C)[C@H](NC(=O)[C@@H](Cc1ccccc1)NC)C(=O)N[C@@H](CO)C(=O)N[C@H](CCC(N)=O)C(=O)N[C@@H](C(=O)N[C@H](C(=O)N[C@@H](CO)C(=O)N[C@H]1C(=O)N[C@@H](C)C(=O)N[C@@]2(C[C@H]2CCO)C(=O)N[C@@H]([C@@H](C)CC)C(=O)O[C@H]1C)[C@@H](C)CC)[C@@H](C)CC.O=C(O)C(F)(F)F [Example 12]	–	–	–	In vitro antibacterial activity MIC, MRSA(ATCC43300) (MRSA (ATCC43300); [4]): 8 µg/mL; In vitro antibacterial activity MIC, MSSA(ATCC29213) (MSSA (ATCC29213) [1]; [5]): 8 µg/mL
CC[C@H](C)[C@H](NC(=O)[C@@H](Cc1ccccc1)NC)C(=O)N[C@@H](CO)C(=O)N[C@H](CCC(N)=O)C(=O)N[C@@H](C(=O)N[C@H](C(=O)N[C@@H](CO)C(=O)N[C@H]1C(=O)N[C@@H](C)C(=O)NC2(CCC2)C(=O)N[C@@H]([C@@H](C)CC)C(=O)O[C@H]1C)[C@@H](C)CC)[C@@H](C)CC.O=C(O)C(F)(F)F [Example 6]	–	–	–	In vitro antibacterial activity MIC, MSSA(ATCC29213) (MSSA (ATCC29213) [2]): 8 µg/mL; In vitro antibacterial activity MIC, MRSA SA86 (MRSA (SA86)): 8 µg/mL
CC[C@H](C)[C@H](NC(=O)[C@@H](Cc1ccccc1)NC)C(=O)N[C@@H](CO)C(=O)N[C@H](CCC(N)=O)C(=O)N[C@@H](C(=O)N[C@H](C(=O)N[C@@H](CO)C(=O)N[C@H]1C(=O)N[C@@H](C)C(=O)NC2(CCCCCC2)C(=O)N[C@@H]([C@@H](C)CC)C(=O)O[C@H]1C)[C@@H](C)CC)[C@@H](C)CC.O=C(O)C(F)(F)F [Example 9]	–	–	–	In vitro antibacterial activity MIC, MSSA(ATCC29213) (MSSA (ATCC29213) [2]): 4 µg/mL; In vitro antibacterial activity MIC, MRSA SA86 (MRSA (SA86)): 4 µg/mL; In vitro antibacterial activity MIC, Enterococcus (ET6) (Enterococcus (ET6)): 4 µg/mL; In vitro antibacterial activity MIC, Streptococcus faecalis(SF) [3]: 8 µg/mL
CC[C@H](C)[C@H](NC(=O)[C@@H](Cc1ccc(-c2ccccc2)cc1)NC)C(=O)N[C@@H](CO)C(=O)N[C@H](CCC(N)=O)C(=O)N[C@@H](C(=O)N[C@H](C(=O)N[C@@H](CO)C(=O)N[C@H]1C(=O)N[C@@H](C)C(=O)NC2(CCCCCC2)C(=O)N[C@@H]([C@@H](C)CC)C(=O)O[C@H]1C)[C@@H](C)CC)[C@@H](C)CC.O=C(O)C(F)(F)F [Example 19]	4 µg/mL	4 µg/mL	4 µg/mL	–
CC[C@H](C)[C@H](NC(=O)[C@@H](Cc1ccc2ccccc2c1)NC)C(=O)N[C@@H](CO)C(=O)N[C@H](CCC(N)=O)C(=O)N[C@@H](C(=O)N[C@H](C(=O)N[C@@H](CO)C(=O)N[C@H]1C(=O)N[C@@H](C)C(=O)NC2(CC2)C(=O)N[C@@H]([C@@H](C)CC)C(=O)O[C@H]1C)[C@@H](C)CC)[C@@H](C)CC.O=C(O)C(F)(F)F [Example 23]	4 µg/mL	2 µg/mL	4 µg/mL	–
C=C[C@H]1C[C@]12NC(=O)[C@H](C)NC(=O)[C@H](NC(=O)[C@H](CO)NC(=O)[C@@H](NC(=O)[C@H](NC(=O)[C@@H](CCC(N)=O)NC(=O)[C@H](CO)NC(=O)[C@@H](NC(=O)[C@@H](Cc1csc3ccccc13)NC)[C@@H](C)CC)[C@@H](C)CC)[C@@H](C)CC)[C@H](C)OC(=O)[C@H]([C@@H](C)CC)NC2=O.O=C(O)C(F)(F)F [Example 16]	4 µg/mL	4 µg/mL	4 µg/mL	–
CC[C@H](C)[C@H](NC(=O)[C@@H](Cc1csc2ccccc12)NC)C(=O)N[C@@H](CO)C(=O)N[C@H](CCC(N)=O)C(=O)N[C@@H](C(=O)N[C@H](C(=O)N[C@@H](CO)C(=O)N[C@H]1C(=O)N[C@@H](C)C(=O)N[C@@]2(C[C@H]2CC(F)F)C(=O)N[C@@H]([C@@H](C)CC)C(=O)O[C@H]1C)[C@@H](C)CC)[C@@H](C)CC.O=C(O)C(F)(F)F [Example 14]	8 µg/mL	4 µg/mL	4 µg/mL	–
CC[C@H](C)[C@H](NC(=O)[C@@H](Cc1ccc(-c2ccc(-c3ccccc3)cc2)cc1)NC)C(=O)N[C@@H](CO)C(=O)N[C@H](CCC(N)=O)C(=O)N[C@@H](C(=O)N[C@H](C(=O)N[C@@H](CO)C(=O)N[C@H]1C(=O)N[C@@H](C)C(=O)NC2(CC2)C(=O)N[C@@H]([C@@H](C)CC)C(=O)O[C@H]1C)[C@@H](C)CC)[C@@H](C)CC.O=C(O)C(F)(F)F [Example 21]	8 µg/mL	8 µg/mL	8 µg/mL	–
CC[C@H](C)[C@H](NC(=O)[C@@H](Cc1csc2ccccc12)NC)C(=O)N[C@@H](CO)C(=O)N[C@H](CCC(N)=O)C(=O)N[C@@H](C(=O)N[C@H](C(=O)N[C@@H](CO)C(=O)N[C@H]1C(=O)N[C@@H](C)C(=O)NC2(CCCCCC2)C(=O)N[C@@H]([C@@H](C)CC)C(=O)O[C@H]1C)[C@@H](C)CC)[C@@H](C)CC.O=C(O)C(F)(F)F [Example 17]	8 µg/mL	4 µg/mL	4 µg/mL	–
CC[C@H](C)[C@H](NC(=O)[C@@H](Cc1ccccc1)NC)C(=O)N[C@@H](CO)C(=O)N[C@H](CCC(N)=O)C(=O)N[C@@H](C(=O)N[C@H](C(=O)N[C@@H](CO)C(=O)N[C@H]1C(=O)N[C@@H](C)C(=O)NC(C)(C)C(=O)N[C@@H]([C@@H](C)CC)C(=O)O[C@H]1C)[C@@H](C)CC)[C@@H](C)CC.O=C(O)C(F)(F)F [Example 26]	–	–	–	In vitro antibacterial activity MIC, VRE(ATCC700221) (VRE (ATCC700221); [4]): >64 µg/mL; In vitro antibacterial activity MIC, MRSA(ATCC43300) (MRSA (ATCC43300); [4]): 32 µg/mL; In vitro antibacterial activity MIC, MSSA(ATCC29213) (MSSA (ATCC29213) [1]; [5]): 64 µg/mL
CC[C@H](C)[C@H](NC(=O)[C@@H](Cc1ccc(-c2ccc(Oc3ccccc3)cc2)cc1)NC)C(=O)N[C@@H](CO)C(=O)N[C@H](CCC(N)=O)C(=O)N[C@@H](C(=O)N[C@H](C(=O)N[C@@H](CO)C(=O)N[C@H]1C(=O)N[C@@H](C)C(=O)NC2(CC2)C(=O)N[C@@H]([C@@H](C)CC)C(=O)O[C@H]1C)[C@@H](C)CC)[C@@H](C)CC.O=C(O)C(F)(F)F [Example 25]	4 µg/mL	4 µg/mL	4 µg/mL	–
